From publication PMC11820896, “New Compounds with Enhanced Biological Activity Through the Strategic Introduction of Silylated Groups into Hydroxystearic Acids” (Molecules, 2025)
Where two headings read alike, the source gives them in different places.

Assays:
HT29 cells [1] = test: Cellular content of total magnesium (DCHQ5 assay); assay type: cell-based, human; conditions: 24 h treatment
Protocol: To evaluate the total magnesium, the fluorimetric DCHQ5 assay was performed according to Nature Protocol. Briefly, the cells were washed in PBS without Mg and Ca three times, accurately counted, and sonicated at 100 W. A standard curve was prepared with a concentration of MgCl2 between 0.5 and 5 µM in buffer MOPS 2 mM in 50% MetOH. The fluorescent probe DCHQ5 15 µM was added, and the fluorescence was recorded on a PTI Quanta Master C60/2000 spectrofluorometer (Photon Technology International, Inc., Birmingham, NJ, USA). A total of 200 µL of the samples was diluted in the MOPS MetOH buffer, DCHQ5 15 µM was added, and the fluorescence was recorded. The amount of Mg was evaluated by interpolating the fluorescence of the sample with respect to the standard curve expressed as nmoles of magnesium/10^6 cells.

I407 = test: MTT assay, normal I407 cells; assay type: cell-based; conditions: Homo sapiens; normal intestinal line; MTT after 24 h of treatment; means of four experiments
Protocol: (§1) The human colorectal adenocarcinoma (Caco-2), human colorectal adenocarcinoma (HT29), normal human intestinal (I407), human cervical cancer (HeLa), human breast cancer (MCF7), human bone osteosarcoma (U2OS), and human acute T-cell leukemia (Jurkat J6) cell lines were purchased from American Type Culture Collection (ATCC, Manassas, VA, USA). Cells were cultured in RPMI 1640 medium (Labtek Eurobio, Milan, Italy), supplemented with 10% FCS (Euroclone, Milano, Italy) and 2 mM L-glutamine (Sigma-Aldrich, Milano, Italy), at 37 °C and in a 5% CO2 atmosphere. The compounds were dissolved in DMSO in a 30–40 mM stock solution. In cell treatments, the final DMSO concentration never exceeded 0.1%.
(§2) Cells were seeded in a 96-well culture plastic plate (Sarsted, Milan, Italy), at 5 × 10^4 cells/well and, after 24 h, were exposed to increasing concentrations of the different compounds (from 1 nM to 500 nM) dissolved in RPMI 1640 medium. An MTT assay was performed according to Micheletti et al..
(§3) The absorbance at 570 nm was measured using a multi-well plate reader (Tecan, Männedorf, Switzerland), and data were analyzed by Prism GraphPad 8 software and expressed as IC50 nM.

HT29 cells [2] = test: Western blot of γH2AX (DNA damage); assay type: cell-based, human; conditions: 50 nM, 6 h
Protocol: HT29 were seeded at a density of 1.5 × 10^4 cell/cm^2 in a Petri dish and, after 24 h, treated for 6 h with 50 nM of compound 4. Cells were harvested, and histones were extracted by previously isolated nuclei according to […] al.. The proteins were resolved on a 10% gel in MES buffer at 200 V for 35 min and immunoblotted with mouse anti-acetylated lysines (Millipore, Billerica, MA, USA) or rabbit anti-γH2Ax (Santa Cruz Biotechnology, Dallas, TX, USA) primary antibodies. The membranes were developed with Clarity Western ECL Substrate (Bio-Rad, Hercules, CA, USA) after incubation with mouse or rabbit secondary horseradish peroxidase-conjugated antibody (GE Healthcare, Chicago, IL, USA). SDS-PAGE was stained with Coomassie Brilliant Blue R-250 (Bio-Rad, Hercules, CA, USA), while densitometric analyses were performed using a Fluor-S Max MultiImager (Bio-Rad, Hercules, CA, USA), and relative quantification of histone acetylation and histone H2Ax phosphorylation signals were normalized to the H1 signal as a control.

SCD1 = SCD1 mRNA expression, qRT-PCR; assay type: cell-based, human; conditions: after 24 h, HT29
Protocol: Total RNA from control- and 4-treated HT29 cells was isolated using the RNeasy Mini Kit (Qiagen, Hilden, Germany) according to the manufacturer's protocol. RNA was quantified using the NanoDrop spectrophotometer (Thermo Fisher Scientific, Waltham, MA, USA). RNA (1 μg) was transcribed into cDNA using the PrimeScript RT Master Mix (Perfect Real Time) (Takara Bio, Kusatsu, Japan) according to the manufacturer's instructions. Real-time PCR was performed using the Sybr Premix Ex Taq Takara kit (Takara Bio, Kusatsu, Japan) and the LightCycler 2.0 instrument (Roche Diagnostic, Basel, Switzerland). The following primers (Sigma-Aldrich, Milan, Italy) were used: [NT] (forward) and [NT] (reverse) for FASN detection, [NT] (forward) and [NT] (reverse) for SCD1 detection, and [NT] (forward) and [NT] (reverse) for the detection of β-actin. The first gene analyzed was the housekeeping gene β-actin, and its CT values were used as standards in the ΔΔCT method of result analysis. cDNA samples from HT29-treated cells were compared with untreated control cells.

HT29 = test: MTT assay, HT29 cells; assay type: cell-based, human; conditions: for IC50: Homo sapiens, HT-29, means of four experiments
Protocol: as §1, §2, §3

HT29 cells [3] = test: Neutral lipid staining (LipidTOX), confocal microscopy; assay type: cell-based, human; conditions: 50 nM, 48 h
Protocol: HT29 cells were grown on glass coverslips, treated as described above, and then washed three times with PBS. The intracellular accumulation of neutral lipids was assessed using LipidTOX™ Red Neutral Lipid Dye (Thermo Fisher Scientific, Waltham, MA, USA) according to the manufacturer’s indications. Specimens embedded in Mowiol were analyzed by confocal microscopy using a Nikon C1si confocal microscope (Nikon, Tokyo, Japan). Fluorescence was excited with a laser tuned at 595 nm, and detected at 650 nm.

HT29 cells [4] = test: Mitochondrial potential by JC-1 staining; assay type: cell-based, human; conditions: 24 h treatment
Protocol: JC-1 is a dye that is permeable to alive cells and is accumulated in the anionic mitochondrial matrix indicating the level of mitochondrial potential. When present at low concentrations, the JC-1 monomer fluorescence is green (around 535 nm), while at increased concentration, it can aggregate and fluoresces in the red (600 nm). The ratio between the red fluorescence and the green one is directly proportional to the mitochondrial activity. […] Negative controls were treated in the same way, but JC-1 was not added to these samples. The plates were read on the Ensight plate reader, exciting the red fluorescence at 506 nm and the green one at 488 nm, while the emission was, respectively, read at 595 nm and 535 nm, and the ratio between the red and green fluorescence was calculated.

[5] = system: human tumor cell lines (HT29, MCF-7, HeLa, U2OS, and J6); test: Antiproliferative activity in the series of human tumor cell lines; assay type: cell-based; conditions: MTT; concentration range of 10–500 nM
Protocol: as §1, §2, §3

SMILES: CCCCCCCCC[C@H](CCCCCCCC(=O)O)O[Si](C)(C)C(C)(C)C [Compound 4, (R)-9-((tert-butyldimethylsilyl)oxy)octadecanoic acid]
- reduction in the Mg content (HT29 cells [1]): −40%
- IC50 (I407): 61.91 ± 0.26 nM
- changes in the γH2AX marker (HT29 cells [2]): does not induce any changes
- SCD1 gene expression (SCD1): decreases
- IC50 (HT29; MTT after 24 h of treatment, read-out: IC50 nM, HT29 (Table 2)): 20.9 ± 0.21 nM
- IC50 (HT29; MTT, na = not active, read-out: In vitro cytotoxic activity (IC50), HT29): 20.3 ± 0.24 nM
- S.I. (Selective Index), HT29 (HT29; versus normal I407 cells): 2.96
- accumulation of lipid droplets (neutral lipids) (HT29 cells [3]): significantly reduces
- change in mitochondrial potential (HT29 cells [4]): does not lead to a change
- antitumor activity across all cell lines tested [5]: showed antitumor activity
